Source: the NIST ThermoML archive (doi:10.1016/j.jct.2015.07.005)
Several values for one entry are separate records, joined by “and”; a condition that tells them apart may be missing. Identical values can stand only once.

Conditions: Gas, Frequency=0.005 MHz, Spherical cavity resonance method

F/C=C/C(F)(F)F [trans-1,3,3,3-tetrafluoropropene]
Conditions | speed of sound
279.9 K, 79.55 kPa | 146.69 m/s and 146.7 m/s
279.9 K, 157.55 kPa | 143.78 m/s
279.9 K, 241.33 kPa | 140.43 m/s
279.91 K, 79.56 kPa | 146.7 m/s
279.91 K, 241.34 kPa | 140.43 m/s
279.92 K, 157.55 kPa | 143.79 m/s
279.92 K, 241.34 kPa | 140.43 m/s
299.96 K, 80.04 kPa | 152.13 m/s
299.96 K, 239.74 kPa | 147.27 m/s
299.97 K, 80.03 kPa | 152.13 m/s
299.97 K, 159.07 kPa | 149.78 m/s
299.97 K, 239.75 kPa | 147.27 m/s
299.97 K, 361.26 kPa | 143.22 m/s
299.98 K, 80.03 kPa | 152.13 m/s
299.98 K, 159.07 kPa | 149.78 m/s
299.98 K, 239.74 kPa | 147.27 m/s
299.98 K, 361.27 kPa | 143.22 m/s
319.93 K, 552.34 kPa | 144.79 m/s
319.94 K, 98.42 kPa | 156.86 m/s
319.94 K, 195.83 kPa | 154.47 m/s
319.94 K, 195.84 kPa | 154.47 m/s
319.94 K, 400.99 kPa | 149.11 m/s
319.94 K, 552.38 kPa | 144.78 m/s
319.94 K, 552.39 kPa | 144.78 m/s
319.95 K, 98.42 kPa | 156.87 m/s
319.95 K, 195.84 kPa | 154.47 m/s
319.95 K, 400.99 kPa | 149.1 m/s
319.96 K, 98.42 kPa | 156.86 m/s
319.97 K, 790.74 kPa | 137.11 m/s
319.97 K, 790.76 kPa | 137.11 m/s
319.98 K, 790.76 kPa | 137.11 m/s
319.98 K, 790.77 kPa | 137.11 m/s
319.99 K, 790.81 kPa | 137.11 m/s
339.94 K, 1198.3 kPa | 134.8 m/s and 134.79 m/s
339.95 K, 199.81 kPa | 159.81 m/s
339.95 K, 199.82 kPa | 159.81 m/s
339.95 K, 311.18 kPa | 157.48 m/s
339.95 K, 311.19 kPa | 157.48 m/s
339.95 K, 511.43 kPa | 153.07 m/s
339.95 K, 511.55 kPa | 153.07 m/s
339.95 K, 797.03 kPa | 146.18 m/s
339.95 K, 797.04 kPa | 146.18 m/s
339.95 K, 1001.8 kPa | 140.68 m/s
339.95 K, 1001.9 kPa | 140.68 m/s
339.95 K, 1198.4 kPa | 134.8 m/s
339.96 K, 99.31 kPa | 161.86 m/s
339.96 K, 200.05 kPa | 159.82 m/s
339.96 K, 311.18 kPa | 157.48 m/s
339.96 K, 400.04 kPa | 155.58 m/s and 155.58 m/s
339.96 K, 511.39 kPa | 153.07 m/s
339.96 K, 797.05 kPa | 146.18 m/s
339.96 K, 1001.9 kPa | 140.68 m/s
339.97 K, 99.31 kPa | 161.86 m/s
339.97 K, 200.05 kPa | 159.82 m/s
339.97 K, 200.06 kPa | 159.82 m/s
339.97 K, 400.04 kPa | 155.58 m/s
339.97 K, 799.59 kPa | 146.12 m/s
339.98 K, 595.08 kPa | 151.15 m/s
339.98 K, 799.46 kPa | 146.12 m/s
339.98 K, 799.52 kPa | 146.12 m/s
359.95 K, 99 kPa | 166.68 m/s
359.95 K, 99.01 kPa | 166.68 m/s
359.96 K, 99 kPa | 166.68 m/s
359.96 K, 99.01 kPa | 166.69 m/s and 166.68 m/s
359.96 K, 307 kPa | 163.12 m/s
359.96 K, 510.35 kPa | 159.46 m/s
359.96 K, 808.74 kPa | 153.75 m/s
359.96 K, 1598.8 kPa | 135.69 m/s
359.97 K, 307 kPa | 163.12 m/s
359.97 K, 511.03 kPa | 159.45 m/s
359.97 K, 808.65 kPa | 153.75 m/s
359.97 K, 808.68 kPa | 153.75 m/s
359.97 K, 1174.2 kPa | 146.04 m/s
359.97 K, 1174.3 kPa | 146.04 m/s
359.97 K, 1598.8 kPa | 135.7 m/s
359.97 K, 2002.9 kPa | 123.58 m/s and 123.58 m/s
359.98 K, 1598.8 kPa | 135.7 m/s
359.98 K, 2002.9 kPa | 123.58 m/s
379.99 K, 98.62 kPa | 171.32 m/s
379.99 K, 98.63 kPa | 171.32 m/s
379.99 K, 297.94 kPa | 168.44 m/s
379.99 K, 452.13 kPa | 166.16 m/s
379.99 K, 784.29 kPa | 161.02 m/s
379.99 K, 784.34 kPa | 161.02 m/s
379.99 K, 1195.5 kPa | 154.18 m/s
379.99 K, 1195.6 kPa | 154.18 m/s
379.99 K, 2008.2 kPa | 138.61 m/s
380 K, 98.61 kPa | 171.32 m/s
380 K, 98.63 kPa | 171.32 m/s
380 K, 297.93 kPa | 168.44 m/s
380 K, 452.13 kPa | 166.16 m/s
380 K, 784.28 kPa | 161.02 m/s
380 K, 1195.5 kPa | 154.18 m/s
380 K, 1608.3 kPa | 146.68 m/s
380 K, 2008.2 kPa | 138.61 m/s
380 K, 2215.6 kPa | 134.03 m/s
380 K, 2215.7 kPa | 134.03 m/s
380 K, 2385.9 kPa | 130 m/s
380 K, 2386 kPa | 130 m/s
380 K, 2606.5 kPa | 124.35 m/s
380 K, 2606.6 kPa | 124.35 m/s
380.01 K, 2606.6 kPa | 124.35 m/s
380.01 K, 2822.2 kPa | 118.21 m/s
380.01 K, 2822.3 kPa | 118.22 m/s
380.02 K, 2822.3 kPa | 118.22 m/s
401.99 K, 98.41 kPa | 176.35 m/s
401.99 K, 98.44 kPa | 176.35 m/s
401.99 K, 98.45 kPa | 176.35 m/s
401.99 K, 98.46 kPa | 176.35 m/s
402 K, 98.39 kPa | 176.35 m/s
402 K, 98.4 kPa | 176.35 m/s
402 K, 98.42 kPa | 176.35 m/s
402 K, 98.43 kPa | 176.35 m/s
402 K, 98.44 kPa | 176.35 m/s
402 K, 98.45 kPa | 176.35 m/s
402 K, 98.46 kPa | 176.35 m/s
402 K, 299.24 kPa | 173.94 m/s
402 K, 299.25 kPa | 173.94 m/s
402 K, 299.26 kPa | 173.94 m/s
402 K, 503.14 kPa | 171.43 m/s
402 K, 504.13 kPa | 171.42 m/s
402 K, 504.78 kPa | 171.41 m/s
402 K, 504.99 kPa | 171.4 m/s
402 K, 505.27 kPa | 171.4 m/s
402 K, 505.76 kPa | 171.4 m/s
402 K, 505.81 kPa | 171.4 m/s
402 K, 505.96 kPa | 171.4 m/s
402 K, 506.02 kPa | 171.4 m/s
402.01 K, 502.88 kPa | 171.44 m/s
402.01 K, 503 kPa | 171.43 m/s
402.01 K, 505.02 kPa | 171.41 m/s
402.01 K, 793.53 kPa | 167.78 m/s
402.01 K, 793.54 kPa | 167.77 m/s and 167.77 m/s
402.01 K, 1189.8 kPa | 162.56 m/s and 162.56 m/s
402.01 K, 1595.9 kPa | 156.94 m/s
402.01 K, 1596 kPa | 156.94 m/s
402.02 K, 1595.8 kPa | 156.94 m/s and 156.94 m/s
402.02 K, 1595.9 kPa | 156.94 m/s
402.02 K, 1596 kPa | 156.94 m/s
402.02 K, 1596.1 kPa | 156.94 m/s
402.02 K, 1596.2 kPa | 156.94 m/s
402.02 K, 1596.3 kPa | 156.94 m/s
402.02 K, 1996.4 kPa | 151.09 m/s
402.03 K, 1996.4 kPa | 151.09 m/s and 151.09 m/s
402.03 K, 2385.1 kPa | 145.09 m/s
402.03 K, 2385.2 kPa | 145.1 m/s and 145.1 m/s
402.04 K, 2832 kPa | 137.75 m/s and 137.75 m/s
402.04 K, 2832.1 kPa | 137.75 m/s and 137.75 m/s
419.97 K, 100.24 kPa | 180.17 m/s
419.97 K, 100.26 kPa | 180.17 m/s
419.97 K, 100.28 kPa | 180.17 m/s
419.97 K, 298.93 kPa | 178.09 m/s
419.98 K, 100.2 kPa | 180.17 m/s
419.98 K, 100.21 kPa | 180.17 m/s
419.98 K, 100.22 kPa | 180.17 m/s
419.98 K, 100.23 kPa | 180.17 m/s
419.98 K, 100.24 kPa | 180.17 m/s
419.98 K, 100.25 kPa | 180.17 m/s
419.98 K, 100.27 kPa | 180.17 m/s
419.98 K, 100.28 kPa | 180.17 m/s
419.98 K, 298.92 kPa | 178.09 m/s
419.98 K, 298.93 kPa | 178.09 m/s
419.98 K, 476.26 kPa | 176.21 m/s
